In patent publication US20260297060A1, “COMPOUNDS FOR THE DEGRADATION OF MUTANT BRAF” (C4 THERAPEUTICS, INC., priority 2023, published 2026):
Read-outs that look alike come from different tables or passages of the source.

Experiment: Pharmacokinetics in female BALB/c nude mice bearing A375 xenografts, 1 day dosing (PK and PD study): plasma, tumor and brain concentrations, AUC
Format: in vivo
Conditions: mouse, po
Description: The concentrations of Dabrafenib, Compound 26 and Compound 141 in the treatment of female BALB/c nude mice bearing A375 xenografts are shown in Table 62-Table 72 and FIG. 52-FIG. 73.

[1] = plasma, 3 mg/kg, 3 mg/kg p.o. BID × 1 day, post 1st dose, read-out: Mean Concentration in Plasma ± SEM
[2] = plasma, 3 mg/kg, 3 mg/kg p.o. BID × 1 day, post 2nd dose, read-out: Mean Concentration in Plasma ± SEM
[3] = plasma, 6 mg/kg, 6 mg/kg p.o. QD × 1 day, read-out: Mean Concentration in Plasma ± SEM
[4] = plasma, 10 mg/kg, 10 mg/kg p.o. BID × 1 day, post 1st dose, read-out: Mean Concentration in Plasma ± SEM
[5] = plasma, 10 mg/kg, 10 mg/kg p.o. BID × 1 day, post 2nd dose, read-out: Mean Concentration in Plasma ± SEM
[6] = tumor, 1.5 mg/kg, 1.5 mg/kg p.o. BID × 1 day, post 2nd dose, read-out: Mean Concentration in Tumor ± SEM
[7] = tumor, 2 mg/kg, 2 mg/kg p.o. TID × 1 day, post 3rd dose, read-out: Mean Concentration in Tumor ± SEM
[8] = tumor, 3 mg/kg, 3 mg/kg p.o. BID × 1 day, post 2nd dose, read-out: Mean Concentration in Tumor ± SEM
[9] = tumor, 6 mg/kg, 6 mg/kg p.o. QD × 1 day, read-out: Mean Concentration in Tumor ± SEM
[10] = tumor, 10 mg/kg, 10 mg/kg p.o. BID × 1 day, post 2nd dose, read-out: Mean Concentration in Tumor ± SEM

Structure (SMILES): CCN(C)S(=O)(=O)Nc1ccc(F)c(Oc2ccc3ncn([C@H]4COC5(CCN(C6CC7(C6)CN(c6cc8c(cc6F)c(N6CCC(=O)NC6=O)nn8C)C7)CC5)C4)c(=O)c3c2)c1C#N [Compound 26, (3R)-3-[6-[2-cyano-3-[[ethyl(methyl)sulfamoyl]amino]-6-fluoro-phenoxy]-4-oxo-quinazolin-3-yl]-8-[2-[3-(2,4-dioxohexahydropyrimidin-1-yl)-5-fluoro-1-methyl-indazol-6-yl]-2-azaspiro[3.3]heptan-6-yl]-1-oxa-8-azaspiro[4.5]decane]
- concentration at 4 h [1]: 3060 ± 172 ng/mL
- concentration at 8 h [1]: 645 ± 24.7 ng/mL
- concentration at 12 h [1]: 527 ± 130 ng/mL
- concentration at 0.25 h [2]: 1380 ± 113 ng/mL
- concentration at 0.5 h [2]: 2880 ± 325 ng/mL
- concentration at 1 h [2]: 4920 ± 1060 ng/mL
- concentration at 2 h [2]: 5290 ± 1110 ng/mL
- concentration at 4 h [2]: 2590 ± 422 ng/mL
- concentration at 10 h [2]: 1500 ± 194 ng/mL
- concentration at 24 h [2]: 20.5 ± 4.61 ng/mL
- concentration at 36 h [2]: 1.58 ng/mL
- concentration at 48 h [2]: 0.968 ± 0.0751 ng/mL
- concentration at 0.25 h [3]: 3250 ± 159 ng/mL
- concentration at 0.5 h [3]: 7680 ± 353 ng/mL
- concentration at 1 h [3]: 15200 ± 186 ng/mL
- concentration at 2 h [3]: 11600 ± 1450 ng/mL
- concentration at 4 h [3]: 6670 ± 1110 ng/mL
- concentration at 8 h [3]: 5720 ± 1940 ng/mL
- concentration at 10 h [3]: 3110 ± 682 ng/mL
- concentration at 24 h [3]: 185 ± 109 ng/mL
- concentration at 36 h [3]: 3.87 ± 0.735 ng/mL
- concentration at 48 h [3]: 1.07 ng/mL
- concentration at 0.25 h [4]: 7140 ± 1960 ng/mL
- concentration at 0.5 h [4]: 17400 ± 1470 ng/mL
- concentration at 1 h [4]: 25400 ± 10500 ng/mL
- concentration at 2 h [4]: 18800 ± 3020 ng/mL
- concentration at 4 h [4]: 7890 ± 2010 ng/mL
- concentration at 8 h [4]: 2920 ± 468 ng/mL
- concentration at 12 h [4]: 964 ± 248 ng/mL
- concentration at 0.25 h [5]: 6220 ± 623 ng/mL
- concentration at 0.5 h [5]: 12800 ± 1590 ng/mL
- concentration at 1 h [5]: 27000 ± 3530 ng/mL
- concentration at 2 h [5]: 20200 ± 1540 ng/mL
- concentration at 4 h [5]: 17100 ± 3470 ng/mL
- concentration at 10 h [5]: 4640 ± 318 ng/mL
- concentration at 24 h [5]: 143 ± 29.1 ng/mL
- concentration at 36 h [5]: 10.7 ± 2.46 ng/mL
- concentration at 48 h [5]: 10.6 ± 9.23 ng/mL
- AUC at 24 h (plasma, 1.5 mg/kg p.o. BID × 1 day, read-out: Plasma AUC at 24 hours, Average): 27600 ng·h/mL
- AUC at 24 h (plasma, 2 mg/kg p.o. TID × 1 day, read-out: Plasma AUC at 24 hours, Average): 41800 ng·h/mL
- AUC at 24 h (plasma, 3 mg/kg p.o. BID × 1 day, read-out: Plasma AUC at 24 hours, Average): 60200 ng·h/mL
- AUC at 24 h (plasma, 6 mg/kg p.o. QD × 1 day, read-out: Plasma AUC at 24 hours, Average): 85100 ng·h/mL
- AUC at 24 h (plasma, 10 mg/kg p.o. BID × 1 day, read-out: Plasma AUC at 24 hours, Average): 224000 ng·h/mL
- concentration at 1 h [6]: 164 ± 31.1 ng/g
- concentration at 4 h [6]: 552 ± 24.7 ng/g
- concentration at 10 h [6]: 246 ± 46.4 ng/g
- concentration at 24 h [6]: 28.3 ± 21.8 ng/g
- concentration at 48 h [6]: 5.63 ng/g
- concentration at 1 h [7]: 617 ± 49.7 ng/g
- concentration at 4 h [7]: 905 ± 48.2 ng/g
- concentration at 10 h [7]: 667 ± 154 ng/g
- concentration at 24 h [7]: 12 ± 2.59 ng/g
- concentration at 0.25 h [8]: 197 ± 15.3 ng/g
- concentration at 0.5 h [8]: 289 ± 31.1 ng/g
- concentration at 1 h [8]: 581 ± 107 ng/g
- concentration at 2 h [8]: 1230 ± 452 ng/g
- concentration at 4 h [8]: 1060 ± 233 ng/g
- concentration at 10 h [8]: 630 ± 39.9 ng/g
- concentration at 24 h [8]: 24.7 ± 7.5 ng/g
- concentration at 48 h [8]: 7.94 ng/g
- concentration at 1 h [9]: 882 ± 157 ng/g
- concentration at 4 h [9]: 2070 ± 259 ng/g
- concentration at 10 h [9]: 1320 ± 333 ng/g
- concentration at 24 h [9]: 89.1 ± 25.7 ng/g
- concentration at 48 h [9]: 24.2 ng/g
- concentration at 1 h [10]: 3500 ± 219 ng/g
- concentration at 4 h [10]: 4160 ± 413 ng/g
- concentration at 10 h [10]: 2060 ± 207 ng/g
- concentration at 24 h [10]: 624 ± 438 ng/g
- concentration at 48 h [10]: 81.6 ng/g
- AUC at 24 h (tumor, 1.5 mg/kg p.o. BID × 1 day, read-out: Tumor AUC at 24 hours, Average): 5750 ng·h/mL
- AUC at 24 h (tumor, 2 mg/kg p.o. TID × 1 day, read-out: Tumor AUC at 24 hours, Average): 11900 ng·h/mL
- AUC at 24 h (tumor, 3 mg/kg p.o. BID × 1 day, read-out: Tumor AUC at 24 hours, Average): 13300 ng·h/mL
- AUC at 24 h (tumor, 6 mg/kg p.o. QD × 1 day, read-out: Tumor AUC at 24 hours, Average): 25800 ng·h/mL
- AUC at 24 h (tumor, 10 mg/kg p.o. BID × 1 day, read-out: Tumor AUC at 24 hours, Average): 56700 ng·h/mL
